Test results: PubChem BioAssay (NCI)
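GI50: concentration for 50% inhibition of growth. TGI denotes the concentration required for complete inhibition of growth.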

Assays:
Assay in all cases: NCI-60 cell line screen, 384-well format
786-0 renal = tested on: 786-0 renal
A498 renal = tested on: A498 renal
A549 NSCLC = tested on: A549 NSCLC
ACHN renal = tested on: ACHN renal
BT-549 breast = tested on: BT-549 breast
CAKI-1 renal = tested on: CAKI-1 renal
COLO 205 colon = tested on: COLO 205 colon
DU-145 prostate = tested on: DU-145 prostate
EKVX NSCLC = tested on: EKVX NSCLC
HCC-2998 colon = tested on: HCC-2998 colon
HCT-116 colon = tested on: HCT-116 colon
HCT-15 colon = tested on: HCT-15 colon
HL-60(TB) leukemia = tested on: HL-60(TB) leukemia
HOP-62 NSCLC = tested on: HOP-62 NSCLC
HOP-92 NSCLC = tested on: HOP-92 NSCLC
HS 578T breast = tested on: HS 578T breast
HT29 colon = tested on: HT29 colon
IGROV1 ovarian = tested on: IGROV1 ovarian
KM12 colon = tested on: KM12 colon
LOX IMVI melanoma = tested on: LOX IMVI melanoma
M14 melanoma = tested on: M14 melanoma
MALME-3M melanoma = tested on: MALME-3M melanoma
MCF7 breast = tested on: MCF7 breast
MDA-MB-231 breast = tested on: MDA-MB-231 breast
MDA-MB-435 melanoma = tested on: MDA-MB-435 melanoma
MDA-MB-468 breast = tested on: MDA-MB-468 breast
MOLT-4 leukemia = tested on: MOLT-4 leukemia
NCI-H226 lung = tested on: NCI-H226 lung
NCI-H23 lung = tested on: NCI-H23 lung
NCI-H322M lung = tested on: NCI-H322M lung
NCI-H460 NSCLC = tested on: NCI-H460 NSCLC
NCI-H522 lung = tested on: NCI-H522 lung
NCI/ADR-RES ovarian = tested on: NCI/ADR-RES ovarian
OVCAR-3 ovarian = tested on: OVCAR-3 ovarian
OVCAR-4 ovarian = tested on: OVCAR-4 ovarian
OVCAR-5 ovarian = tested on: OVCAR-5 ovarian
OVCAR-8 ovarian = tested on: OVCAR-8 ovarian
PC-3 prostate = tested on: PC-3 prostate
RPMI-8226 leukemia = tested on: RPMI-8226 leukemia
RXF 393 renal = tested on: RXF 393 renal
SF-268 CNS = tested on: SF-268 CNS
SF-295 CNS = tested on: SF-295 CNS
SF-539 CNS = tested on: SF-539 CNS
SK-MEL-28 melanoma = tested on: SK-MEL-28 melanoma
SK-MEL-5 melanoma = tested on: SK-MEL-5 melanoma
SK-OV-3 ovarian = tested on: SK-OV-3 ovarian
SN12C renal = tested on: SN12C renal
SNB-19 CNS = tested on: SNB-19 CNS
SNB-75 CNS = tested on: SNB-75 CNS
SR leukemia = tested on: SR leukemia
SW-620 colon = tested on: SW-620 colon
T-47D breast = tested on: T-47D breast
TK-10 renal = tested on: TK-10 renal
U251 glioblastoma = tested on: U251 glioblastoma
UACC-257 melanoma = tested on: UACC-257 melanoma
UACC-62 melanoma = tested on: UACC-62 melanoma
UO-31 renal = tested on: UO-31 renal

Cc1ccc(NC(=O)c2ccc(CN3CCN(C)CC3)cc2)cc1Nc1nccc(-c2cccnc2)n1
GI50 (786-0 renal): 2.87 µM
TGI (786-0 renal): 7.97 µM
GI50 (A498 renal): 6.8 µM
TGI (A498 renal): 19 µM
GI50 (A549 NSCLC): 16.5 µM
TGI (A549 NSCLC): 35.1 µM
GI50 (ACHN renal): 15.4 µM
TGI (ACHN renal): 29 µM
GI50 (BT-549 breast): 12.1 µM
TGI (BT-549 breast): 24.6 µM
GI50 (CAKI-1 renal): 16.7 µM
TGI (CAKI-1 renal): 30.5 µM
GI50 (COLO 205 colon): 16.3 µM
TGI (COLO 205 colon): 29.9 µM
GI50 (DU-145 prostate): 17.1 µM
TGI (DU-145 prostate): 31.1 µM
GI50 (EKVX NSCLC): 15.5 µM
TGI (EKVX NSCLC): 29.8 µM
GI50 (HCC-2998 colon): 5.93 µM
TGI (HCC-2998 colon): 17.5 µM
GI50 (HCT-116 colon): 6.25 µM
TGI (HCT-116 colon): 18.8 µM
GI50 (HCT-15 colon): 2.48 µM
TGI (HCT-15 colon): 5.73 µM
GI50 (HL-60(TB) leukemia): 5.97 µM
TGI (HL-60(TB) leukemia): 16 µM
GI50 (HOP-62 NSCLC): 14.2 µM
TGI (HOP-62 NSCLC): 27.4 µM
GI50 (HOP-92 NSCLC): 13.7 µM
TGI (HOP-92 NSCLC): 28.1 µM
GI50 (HS 578T breast): 12.9 µM
TGI (HS 578T breast): 25.6 µM
GI50 (HT29 colon): 2.66 µM
TGI (HT29 colon): 6.67 µM
GI50 (IGROV1 ovarian): 12.5 µM
TGI (IGROV1 ovarian): 25.2 µM
GI50 (KM12 colon): 14.3 µM
TGI (KM12 colon): 27.6 µM
GI50 (LOX IMVI melanoma): 4.25 µM
TGI (LOX IMVI melanoma): 14.9 µM
GI50 (M14 melanoma): 5.66 µM
TGI (M14 melanoma): 16.7 µM
GI50 (MALME-3M melanoma): 2.58 µM
TGI (MALME-3M melanoma): 5.42 µM
GI50 (MCF7 breast): 10.6 µM
TGI (MCF7 breast): 22.7 µM
GI50 (MDA-MB-231 breast): 12.6 µM
TGI (MDA-MB-231 breast): 26.7 µM
GI50 (MDA-MB-435 melanoma): 16.7 µM
TGI (MDA-MB-435 melanoma): 31.4 µM
GI50 (MDA-MB-468 breast): 5.1 µM
TGI (MDA-MB-468 breast): 17.9 µM
GI50 (MOLT-4 leukemia): 4.23 µM
TGI (MOLT-4 leukemia): 15.4 µM
GI50 (NCI-H226 lung): 6.87 µM
TGI (NCI-H226 lung): 19.1 µM
GI50 (NCI-H23 lung): 11.5 µM
TGI (NCI-H23 lung): 24.3 µM
GI50 (NCI-H322M lung): 8.53 µM
TGI (NCI-H322M lung): 21.2 µM
GI50 (NCI-H460 NSCLC): 16.6 µM
TGI (NCI-H460 NSCLC): 30.9 µM
GI50 (NCI-H522 lung): 12 µM
TGI (NCI-H522 lung): 24.7 µM
GI50 (NCI/ADR-RES ovarian): 17.2 µM
TGI (NCI/ADR-RES ovarian): 32.1 µM
GI50 (OVCAR-3 ovarian): 17.1 µM
TGI (OVCAR-3 ovarian): 31.8 µM
GI50 (OVCAR-4 ovarian): 16.2 µM
TGI (OVCAR-4 ovarian): 30.7 µM
GI50 (OVCAR-5 ovarian): 13.4 µM
TGI (OVCAR-5 ovarian): 36.8 µM
GI50 (OVCAR-8 ovarian): 14.8 µM
TGI (OVCAR-8 ovarian): 28.4 µM
GI50 (PC-3 prostate): 16 µM
TGI (PC-3 prostate): 31.1 µM
GI50 (RPMI-8226 leukemia): 11.2 µM
TGI (RPMI-8226 leukemia): 23.3 µM
GI50 (RXF 393 renal): 3.61 µM
TGI (RXF 393 renal): 16.2 µM
GI50 (SF-268 CNS): 18.7 µM
TGI (SF-268 CNS): 36.2 µM
GI50 (SF-295 CNS): 14.2 µM
TGI (SF-295 CNS): 27.8 µM
GI50 (SF-539 CNS): 9.13 µM
TGI (SF-539 CNS): 21.4 µM
GI50 (SK-MEL-28 melanoma): 14.4 µM
TGI (SK-MEL-28 melanoma): 27.7 µM
GI50 (SK-MEL-5 melanoma): 10.4 µM
TGI (SK-MEL-5 melanoma): 22.2 µM
GI50 (SK-OV-3 ovarian): 19.7 µM
TGI (SK-OV-3 ovarian): 37.1 µM
GI50 (SN12C renal): 24.7 µM
TGI (SN12C renal): 64.4 µM
GI50 (SNB-19 CNS): 22.1 µM
TGI (SNB-19 CNS): 49.3 µM
GI50 (SNB-75 CNS): 21.7 µM
TGI (SNB-75 CNS): 36.2 µM
GI50 (SR leukemia): 8.83 µM
TGI (SR leukemia): 19.6 µM
GI50 (SW-620 colon): 20.6 µM
TGI (SW-620 colon): 41.2 µM
GI50 (T-47D breast): 6.92 µM
TGI (T-47D breast): 20 µM
GI50 (TK-10 renal): 20.3 µM
TGI (TK-10 renal): 43.1 µM
GI50 (U251 glioblastoma): 14.1 µM
TGI (U251 glioblastoma): 28 µM
GI50 (UACC-257 melanoma): 2.49 µM
TGI (UACC-257 melanoma): 6.18 µM
GI50 (UACC-62 melanoma): 13.6 µM
TGI (UACC-62 melanoma): 26.7 µM
GI50 (UO-31 renal): 15.8 µM
TGI (UO-31 renal): 30.6 µM
